Data reported in the supplement of paper PMC7600603.

Experiments:
DLD1 NRF2-GOF [1] = experiment: drug sensitivity score (DSS) cytotoxicity (DSS score); higher = more toxic; extreme values may be limits of the assay; conditions: 72 h; CellTox Green cytotoxicity
In short: (§1)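 Isogenic DLD1 colorectal cancer cells, either NRF2 wild-type or CRISPR gain-of-function, were grown in DMEM with 10% FBS. They were exposed in 384-well plates to library compounds at 5 concentrations spanning a 10,000-fold range. After 72 h, cytotoxicity was read by CellTox Green on a Pherastar FS reader and normalised to vehicle wells and 100-μM positive-control wells. TC50 and drug sensitivity score (a normalised area under the curve) came from logistic dose-response fits.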

DLD1 NRF2-WT [2] = experiment: as above; conditions: 72 h; CellTox Green cytotoxicity
In short: as §1

DLD1 NRF2-GOF [3] = experiment: TC50 cytotoxicity; higher = less toxic; conditions: 72 h; CellTox Green cytotoxicity
In short: as §1

DLD1 NRF2-WT [4] = experiment: TC50 cytotoxicity; higher = less toxic; conditions: 72 h; CellTox Green cytotoxicity
In short: as §1

DLD1 NRF2-GOF [5] = experiment: drug sensitivity score (DSS) viability (DSS score); higher = more sensitive; extreme values may be limits of the assay; conditions: 72 h; CellTiter-Glo viability
In short: (§2)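 EC50 and drug sensitivity score, the latter a normalised area under the curve, were calculated from logistic dose-response fits. The fits had four parameters and used CellTiter-Glo viability data read on a Pherastar FS reader 72 h after treatment, normalised to vehicle wells and 100-μM positive-control wells. Treated cells were isogenic DLD1 colorectal cancer cells, NRF2 wild-type or CRISPR gain-of-function, exposed in 384-well plates to library compounds at 5 concentrations spanning a 10,000-fold range.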

DLD1 NRF2-WT [6] = experiment: as above; conditions: 72 h; CellTiter-Glo viability
In short: as §2

DLD1 NRF2-GOF [7] = conditions: 72 h; CellTiter-Glo viability
In short: as §2

DLD1 NRF2-WT [8] = conditions: 72 h; CellTiter-Glo viability
In short: as §2

SMILES	drug sensitivity score (DLD1 NRF2-GOF [1])	drug sensitivity score (DLD1 NRF2-WT [2])	TC50 cytotoxicity (DLD1 NRF2-GOF [3])	TC50 cytotoxicity (DLD1 NRF2-WT [4])	drug sensitivity score (DLD1 NRF2-GOF [5])	drug sensitivity score (DLD1 NRF2-WT [6])	EC50 viability (DLD1 NRF2-GOF [7])	EC50 viability (DLD1 NRF2-WT [8])
Cn1cc(C[C@@H](N)C(=O)O)c2ccccc21 [1-methyl-D-tryptophan]	0	0	> 5000 nM	> 5000 nM	3.2	2.3	552 nM	874 nM
Nc1ncnc2c1nc(N)n2[C@@H]1O[C@H](CO)[C@@H](O)[C@H]1O [8-amino-adenosine]	11.2	11.8	5200 nM	4710 nM	18.2	20	1500 nM	1070 nM
Nc1ncnc2c1nc(Cl)n2[C@@H]1O[C@H](CO)[C@@H](O)[C@H]1O [8-chloro-adenosine]	0.2	0	> 50000 nM	> 50000 nM	15.2	16.6	1310 nM	1150 nM
COc1cc2c(cc1OCCCN1CCCC1)N=C(N)C21CCC1 [A-366]	0	0	> 25000 nM	> 25000 nM	0	0	> 25000 nM	> 25000 nM
COCCOc1cnc2ccn([C@H](C)c3nnc4c(F)cc(-c5cnn(C)c5)cn34)c(=O)c2c1 [AMG-337]	0	0	> 10000 nM	> 10000 nM	6.6	4.2	270 nM	543 nM
COCC1(CO)C(=O)C2CCN1CC2 (centres undefined) [APR-246]	0	0	> 10000 nM	> 10000 nM	0	4.5	> 10000 nM	> 10000 nM
CC(C)[C@H](C(=O)Nc1ccc(C(=O)NO)cc1)c1ccccc1 [AR-42]	0	4	> 10000 nM	1970 nM	5.7	9.4	1730 nM	1260 nM
COc1cc(N2CCC(N3CCN(C)CC3)CC2)ccc1Nc1ncnc(Nc2ccccc2S(=O)(=O)C(C)C)n1 [ASP3026]	0	0	> 10000 nM	> 10000 nM	3	3.3	3420 nM	3550 nM
O=C(NC1CCNCC1)c1n[nH]cc1NC(=O)c1c(Cl)cccc1Cl [AT7519]	0	0	> 10000 nM	> 10000 nM	17.1	20	256 nM	169 nM
O=C(Nc1c[nH]nc1-c1nc2ccc(CN3CCOCC3)cc2[nH]1)NC1CC1 [AT9283]	9.8	2.6	26.7 nM	> 1000 nM	15.1	8.6	21.9 nM	55.5 nM
Cc1cc2c(C(C)C)c(O)c(O)c(C=O)c2c(O)c1-c1c(C)cc2c(C(C)C)c(O)c(O)c(C=O)c2c1O [AT 101]	1	1.7	> 100000 nM	30300 nM	14.4	15.9	6100 nM	4410 nM
CN[C@@H](C)C(=O)N[C@H]1CN(C(=O)CC(C)C)CC[C@H]2CC[C@@H](C(=O)NC(c3ccccc3)c3ccccc3)N2C1=O [AT-406]	0	0	> 10000 nM	> 10000 nM	2.6	0	885 nM	> 10000 nM
CC[C@H](CC#N)OC(=O)N[C@@H](C)c1cccc(NC(=O)Nc2ccc(-c3cnco3)c(OC)c2)c1 [AVN944]	0	0	> 10000 nM	> 10000 nM	15.9	15.6	112 nM	169 nM
COc1cc(N2CCN(C)CC2)ccc1Nc1nccc(-c2cn(C)c3cnccc23)n1 [AZ191]	0	0.3	> 10000 nM	> 10000 nM	5.2	7	1780 nM	1590 nM
CCN(CCO)CCCOc1ccc2c(Nc3cc(CC(=O)Nc4cccc(F)c4)[nH]n3)ncnc2c1 [AZD1152-HQPA]	7.7	5.5	56.8 nM	53.4 nM	6.7	6.6	65.8 nM	35.5 nM
C=CCn1c(=O)c2cnc(Nc3ccc(N4CCN(C)CC4)cc3)nc2n1-c1cccc(C(C)(C)O)n1 [AZD1775]	6.1	5.7	171 nM	1000 nM	16.9	14.5	143 nM	353 nM
C[C@@H]1COCCN1c1cc(C2([S@](C)(=N)=O)CC2)nc(-c2cc[nH]c3nccc2-3)n1 [AZD6738]	0	0	> 25000 nM	> 25000 nM	4.5	7.8	3030 nM	2670 nM
NC(=O)Nc1cc(-c2cccc(F)c2)sc1C(=O)N[C@H]1CCCNC1 [AZD7762]	1.7	2.2	362 nM	247 nM	7.6	5.3	106 nM	175 nM
COc1ccc(-c2ccc3c(N4CCOC[C@@H]4C)nc(N4CCOC[C@@H]4C)nc3n2)cc1CO [AZD8055]	0	0	> 10000 nM	> 10000 nM	17.4	19.1	103 nM	75.1 nM
NC1(C(=O)N[C@@H](CCO)c2ccc(Cl)cc2)CCN(c2ncnc3[nH]ccc23)CC1 [AZD-5363]	0	0	> 10000 nM	> 10000 nM	5.2	6.1	1510 nM	687 nM
CN[C@@H]1C[C@H]2O[C@@](C)([C@@H]1OC)n1c3ccccc3c3c4c(c5c6ccccc6n2c5c31)C(=O)N[C@H]4O [UCN-01]	5	10.4		302 nM	12.6	16.4	578 nM	344 nM
CC[C@]12C=CCN3CC[C@@]4(c5cc([C@@]6(C(=O)OC)C[C@@H]7C[C@@H](C(C)(F)F)CN(Cc8c6[nH]c6ccccc86)C7)c(OC)cc5N(C)[C@H]4[C@@](O)(C(=O)OC)[C@@H]1OC(C)=O)[C@@H]32 [Vinflunine]	1	1.3		> 1000 nM	6.9	7	162 nM	143 nM
